Assay results: ChEMBL document CHEMBL1770079, “Discovery of small molecule human FPR1 receptor antagonists” (Bioorg Med Chem Lett, 2011)
Values after ≈ are worked out from the molar mass of the structure shown. Values belong to the molecule of their own block, whether it stands above or below them. Active and inactive are the calls of the source. The rule behind the calls is not given here.

What was measured:
fMet-Leu-Phe receptor [1] = molecular target: T1, fMet-Leu-Phe receptor (Homo sapiens, UniProt P21462); test: (§1) Intrinsic activity at FPR1 in human neutrophils assessed as increase in calcium mobilization by FLIPR assay relative to fMLF; type: functional
T1 sequence (P21462 whole entry): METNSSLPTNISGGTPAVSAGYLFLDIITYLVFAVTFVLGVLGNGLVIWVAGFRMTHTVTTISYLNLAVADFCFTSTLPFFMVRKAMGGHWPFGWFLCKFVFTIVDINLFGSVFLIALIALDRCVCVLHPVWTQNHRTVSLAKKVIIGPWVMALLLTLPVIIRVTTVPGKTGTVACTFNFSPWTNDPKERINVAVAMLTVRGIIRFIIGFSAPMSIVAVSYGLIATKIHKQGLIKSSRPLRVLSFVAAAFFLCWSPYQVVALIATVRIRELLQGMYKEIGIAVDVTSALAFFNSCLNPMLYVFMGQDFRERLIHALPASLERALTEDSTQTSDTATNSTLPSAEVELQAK

[2] = molecular target: T2, C-X-C chemokine receptor type 2 (Homo sapiens) (UniProt P25025); test: Antagonist activity at CXCR2 in human neutrophils assessed as inhibition of GROalpha-stimulated intracellular calcium mobilization at 50 uM by FLIPR assay; type: functional, cell-based
T2 sequence (whole entry): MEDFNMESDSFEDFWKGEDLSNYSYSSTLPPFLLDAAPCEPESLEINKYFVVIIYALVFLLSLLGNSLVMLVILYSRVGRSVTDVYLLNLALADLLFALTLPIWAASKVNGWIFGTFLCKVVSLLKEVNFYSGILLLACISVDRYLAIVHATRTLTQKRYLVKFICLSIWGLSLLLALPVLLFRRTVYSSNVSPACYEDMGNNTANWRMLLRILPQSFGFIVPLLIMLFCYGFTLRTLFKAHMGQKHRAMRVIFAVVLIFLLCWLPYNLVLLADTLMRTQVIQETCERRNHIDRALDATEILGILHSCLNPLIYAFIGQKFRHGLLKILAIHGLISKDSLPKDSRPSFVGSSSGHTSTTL

fMet-Leu-Phe receptor [3] = molecular target: T1, fMet-Leu-Phe receptor; test: Displacement of [3H]fMLF from human FPR1 expressed in CHO cells by scintillation counting; type: cell-based
[4] = molecular target: T3, C5a anaphylatoxin chemotactic receptor 1 (Homo sapiens) (UniProt P21730); test: Antagonist activity at C5aR in human neutrophils assessed as inhibition of C5a-stimulated intracellular calcium mobilization at 50 uM by FLIPR assay; type: functional, cell-based
T3 sequence (whole entry): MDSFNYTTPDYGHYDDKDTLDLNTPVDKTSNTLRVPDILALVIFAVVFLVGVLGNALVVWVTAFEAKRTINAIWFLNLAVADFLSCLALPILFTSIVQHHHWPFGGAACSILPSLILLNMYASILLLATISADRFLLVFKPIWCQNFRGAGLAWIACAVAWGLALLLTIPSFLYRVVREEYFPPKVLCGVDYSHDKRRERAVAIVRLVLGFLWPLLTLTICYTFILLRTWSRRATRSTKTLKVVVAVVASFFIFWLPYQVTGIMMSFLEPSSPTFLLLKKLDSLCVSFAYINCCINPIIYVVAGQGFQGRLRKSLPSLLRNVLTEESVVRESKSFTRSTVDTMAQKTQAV

[5] = molecular target: T4, N-formyl peptide receptor 2 (Homo sapiens) (UniProt P25090); test: Antagonist activity at FPR2 in human neutrophils assessed as inhibition of SHHGtide-stimulated intracellular calcium mobilisation at 50 uM by FLIPR assay; type: functional, cell-based
T4 sequence (whole entry): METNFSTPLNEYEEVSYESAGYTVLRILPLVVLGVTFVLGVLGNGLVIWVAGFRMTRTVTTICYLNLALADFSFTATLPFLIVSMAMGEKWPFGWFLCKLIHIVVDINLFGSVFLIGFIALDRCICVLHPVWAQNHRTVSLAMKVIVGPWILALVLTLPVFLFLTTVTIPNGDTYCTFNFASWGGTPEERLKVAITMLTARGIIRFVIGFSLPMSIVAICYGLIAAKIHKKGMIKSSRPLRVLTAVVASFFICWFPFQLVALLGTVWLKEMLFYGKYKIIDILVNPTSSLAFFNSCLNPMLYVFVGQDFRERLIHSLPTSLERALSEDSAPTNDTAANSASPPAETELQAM

fMet-Leu-Phe receptor [6] = molecular target: T1, fMet-Leu-Phe receptor; test: Antagonist activity at FPR1 in human neutrophils assessed as inhibition of fMLF-stimulated degranulation after 15 mins by fluorescence assay; type: functional
[7] = Antagonist activity at rat FPR1 expressed in HEK293 cells assessed as inhibition of fMLF-stimulated intracellular calcium mobilisation by FLIPR assay; type: functional, cell-based
[8] = molecular target: T5, fMet-Leu-Phe receptor (Mus musculus) (UniProt P33766); test: Antagonist activity at mouse FPR1 expressed in HEK293 cells assessed as inhibition of fMLFF-stimulated intracellular calcium mobilisation at 50 uM by FLIPR assay; type: functional, cell-based
T5 sequence (whole entry): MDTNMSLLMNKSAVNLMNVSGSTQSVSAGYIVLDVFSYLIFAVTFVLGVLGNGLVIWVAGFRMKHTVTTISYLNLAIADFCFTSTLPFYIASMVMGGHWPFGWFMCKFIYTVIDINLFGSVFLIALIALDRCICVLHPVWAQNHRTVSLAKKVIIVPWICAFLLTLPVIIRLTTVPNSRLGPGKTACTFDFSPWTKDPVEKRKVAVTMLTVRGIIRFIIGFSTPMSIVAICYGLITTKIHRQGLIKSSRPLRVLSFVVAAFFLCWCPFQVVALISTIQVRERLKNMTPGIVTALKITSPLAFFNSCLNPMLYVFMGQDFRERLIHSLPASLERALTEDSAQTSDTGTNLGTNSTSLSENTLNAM

fMet-Leu-Phe receptor [9] = molecular target: T1, fMet-Leu-Phe receptor; test: Antagonist activity at FPR1 in human neutrophils assessed as inhibition of fMLF-stimulated calcium mobilization by FLIPR assay; type: functional
[10] = molecular target: T6, fMet-Leu-Phe receptor (Homo sapiens) (UniProt P21462); test: Antagonist activity at FPR1 in human neutrophils assessed as inhibition of PMA-stimulated neutrophil degranulation after 15 mins by fluorescence assay; type: functional
T6 sequence (whole entry): T1 sequence (P21462 whole entry)

THP-1 = test: Cytotoxicity against human THP1 cells assessed as cell viability after 24 hrs by Alamar blue assay; type: cell-based; conditions: THP-1, 24 h
[11] = Solubility of the compound in 0.1 M phosphate buffer; type: physicochemical
[12] = molecular target: T6, fMet-Leu-Phe receptor (Homo sapiens); test: Reversible inhibition of FPR1 in human neutrophils assessed as inhibition of fMLF-stimulated calcium mobilisation by FLIPR assay; type: functional
fMet-Leu-Phe receptor [13] = molecular target: T1, fMet-Leu-Phe receptor; test: Antagonist activity at human FPR1 in expressed in HEK293 cells assessed as inhibition of fMLF-stimulated intracellular calcium mobilisation after 5 mins by FLIPR assay; type: functional, cell-based
[14] = molecular target: T6, fMet-Leu-Phe receptor (Homo sapiens); test: Agonist activity at FPR1 in human neutrophils assessed as increase in calcium mobilization at 50 uM by FLIPR assay; type: functional
fMet-Leu-Phe receptor [15] = molecular target: T1, fMet-Leu-Phe receptor; test: Antagonist activity at FPR1; type: functional
[16] = molecular target: T6, fMet-Leu-Phe receptor (Homo sapiens); test: (§2) Agonist activity at FPR1 in human neutrophils assessed as increase in calcium mobilization by FLIPR assay; type: functional; design: concentration or dose not given beside the values; conditions: concentration not given here
[17] = Intrinsic clearance in human microsomes; type: ADME, Microsome
fMet-Leu-Phe receptor [18] = molecular target: T1, fMet-Leu-Phe receptor; test: as §2; type: functional
[19] = molecular target: T6, fMet-Leu-Phe receptor (Homo sapiens); test: as §1; type: functional
[20] = molecular target: T6, fMet-Leu-Phe receptor (Homo sapiens); test: Antagonist activity at FPR1 in human neutrophils assessed as inhibition of fMLF-stimulated calcium mobilization at 50 uM by FLIPR assay; type: functional

SMILES: CSCCC(NC(=O)C1CCCCC1)c1nc2ccccc2[nH]1 (stereo not drawn)
- IC50 (fMet-Leu-Phe receptor [1]): 2510 nM

SMILES: CC(C)C(C(=O)O)N1C(=O)/C(=C2/C(=O)N(C)c3ccccc32)SC1=S (stereo not drawn)
- IC50 (fMet-Leu-Phe receptor [15]): 5010 nM

SMILES: CSCCC(NC(=O)c1ccccc1)c1nc2ccccc2n1Cc1ccccc1 (stereo not drawn)
- inhibition [16]: < 25%
- IC50 (fMet-Leu-Phe receptor [1]): 2510 nM

SMILES: Cc1cccc(C(NC(=O)c2ccccc2O)C(=O)Nc2c(C)cccc2C)c1C (stereo not drawn)
- IC50 (fMet-Leu-Phe receptor [1]): 79.4 nM

SMILES: O=C(NC(C(=O)NC1CCCCC1)c1ccc(Cl)cc1)c1ccccc1O (stereo not drawn)
- IC50 (fMet-Leu-Phe receptor [1]): 2510 nM

SMILES: Cc1cccc(C)c1NC(=O)C(NC(=O)c1ccccc1O)c1ccccc1 (stereo not drawn)
- IC50 (fMet-Leu-Phe receptor [1]): 1260 nM

SMILES: O=C(NC(C(=O)Nc1ccccc1)c1ccc(Cl)cc1)c1ccccc1O (stereo not drawn)
- IC50 (fMet-Leu-Phe receptor [1]): 5010 nM

SMILES: CSCCC(NC(=O)Cc1ccccc1)c1nc2ccccc2[nH]1 (stereo not drawn)
- inhibition [20]: < 25%

The next lines start with results.

- IC50 (fMet-Leu-Phe receptor [1]): 3980 nM
SMILES: CSCCC(NC(=O)c1oc2ccccc2c1C)c1nc2ccccc2[nH]1 (stereo not drawn)

- inhibition [2]: < 25%
- IC50 (fMet-Leu-Phe receptor [3]): 31.6 nM
- inhibition [5]: < 25%
- IC50 (fMet-Leu-Phe receptor [6]): 158 nM
- IC50 [7]: 10000 nM
- inhibition [8]: < 25%
- IC50 (fMet-Leu-Phe receptor [9]): 501 nM
- inhibition [10]: < 25%
- solubility [11]: 17 µM (≈ 7.2 µg/mL)
- inhibition [12]: Active
- IC50 (fMet-Leu-Phe receptor [13]): 3160 nM
- IC50 (fMet-Leu-Phe receptor [1]): 501 nM
- inhibition [14]: < 25%
SMILES: CCOc1ccc2oc(C(=O)NC(CCSC)c3nc4ccccc4[nH]3)c(C)c2c1 (stereo not drawn)
- inhibition [4]: < 25%
- IC50 (THP-1): 100000 nM

- inhibition [16]: < 25%
- IC50 (fMet-Leu-Phe receptor [1]): 5010 nM
SMILES: CCOc1ccc2oc(C(=O)NC(CCSC)c3nc4ncncc4[nH]3)c(C)c2c1 (stereo not drawn)

- IC50 (fMet-Leu-Phe receptor [1]): 5010 nM
SMILES: CSCCC(NC(=O)c1ccccc1)c1nc2ccccc2[nH]1 (stereo not drawn)

- IC50 (fMet-Leu-Phe receptor [1]): 10000 nM
SMILES: CSCCC(NC(=O)c1cnccn1)c1nc2ccccc2[nH]1 (stereo not drawn)

- microsomal CLint [17]: 3 µL/min/mg
- IC50 (fMet-Leu-Phe receptor [1]): 10000 nM
SMILES: CCOc1ccc2oc(C(=O)NC(CS(C)(=O)=O)c3nc4ccccc4[nH]3)c(C)c2c1 (stereo not drawn)

- IC50 (fMet-Leu-Phe receptor [1]): 3980 nM
SMILES: CSCCC(NC(=O)c1occc1C)c1nc2ccccc2[nH]1 (stereo not drawn)

- EC50 (fMet-Leu-Phe receptor [18]): 1580 nM
- Intrinsic activity [19]: 0.8
- IC50 (fMet-Leu-Phe receptor [1]): 1000 nM
SMILES: CCOc1ccc2oc(C(=O)NC(CCSC)c3nc4cnccc4[nH]3)c(C)c2c1 (stereo not drawn)

- IC50 (fMet-Leu-Phe receptor [1]): 2000 nM
SMILES: CSCCC(NC(=O)c1sccc1Cl)c1nc2ccccc2[nH]1 (stereo not drawn)

- IC50 (fMet-Leu-Phe receptor [1]): 3980 nM
SMILES: CSCCC(NC(=O)c1ccccc1O)c1nc2ccccc2[nH]1 (stereo not drawn)

- IC50 (fMet-Leu-Phe receptor [1]): 631 nM
SMILES: CCOc1ccc2oc(C(=O)N[C@H](CSC)c3nc4ccccc4[nH]3)c(C)c2c1
